For data set [1], the system named is M-24 metastatic melanoma cells. Nature of the data set: XTT dye binding cytotoxicity assay, M-24. It is filed as cell-based. Conditions: Homo sapiens, M24; M-24, melanoma-metastatic; 72 h; read-out: IC50. How it is done:
(§1) All cell lines described herein were obtained from the ATCC and maintained in media formulations as recommended by the supplier. The cell lines were tested for mycoplasma contamination prior to incubation at 37° C. in 5% carbon dioxide. Normal human dermal fibroblasts, peripheral blood lymphoblasts and mammary epithelial cells were obtained from Clonogenic Cor., San Diego, Calif. and were maintained under the above incubation conditions in special media provided by the supplier.
(§2) Antiproliferative activities of the onium salts were determined using the XTT dye binding assay. Cells were harvested with trypsin/EDTA (Irvine Scientific), washed, resuspended in the appropriate medium, and counted in a hemocytometer using Trypan Blue to determine viability. Then 10^4 cells/well were added to 96 well microtiter plates and incubated for 24 hours before addition of drug at concentrations in the range of 10^-4 to 10^-13 molar by direct addition from DMSO solutions. After 72 hours, XTT binding dye was added and incubation was continued for 4 hours. The inhibition of cell proliferation was quantified using a Molecular Devices Microplate Reader. The absorbance of XTT was measured at […]. The concentration of drug which inhibited growth of cells by 50% was calculated from duplicated determinations.
(Tetrazolium dyes change colour on reduction, which living cells bring about.)

Data set [2] deals with UCLA-P3 lung carcinoma cells. In words: XTT dye binding cytotoxicity assay, UCLA-P3. The conditions noted are these: Homo sapiens, UCLA P-3, 72 h. In kind it is cell-based. How it is done:
as §1, §2

A further data set has as its system U-2511 CNS cancer cells. Nature of the data set: XTT dye binding cytotoxicity assay, U-2511. It is filed as cell-based. The conditions noted are these: Homo sapiens; U-2511, CNS cancer; 72 h; read-out: IC50. How it is done:
as §1, §2

Data set [3] deals with HT-29 colon carcinoma cells. In words: XTT dye binding cytotoxicity assay, HT-29. It is filed as cell-based. The conditions noted are these: Homo sapiens; HT-29, colon carcinoma; 72 h; read-out: IC50. How it is done: as §1, §2
In data set [4] the test system is SIHA squamous carcinoma cells. In words: XTT dye binding cytotoxicity assay, SIHA. It is filed as cell-based. Conditions: Homo sapiens; SIHA, squamous carcinoma; 72 h; read-out: IC50. How it is done: as §1, §2
The test system of data set [5] is HMEC mammary epithelial cells. Nature of the data set: XTT dye binding cytotoxicity assay, HMEC. It is filed as cell-based. Conditions: Homo sapiens, mammary epithelial cells (untransformed), 72 h, read-out: IC50. How it is done:
as §1, §2

In another data set the test system is tubulin. Nature of the data set: Tubulin polymerization-depolymerization (microtubule assembly-disassembly) assay. It is filed as biochemical, calf.
The test system of another data set is human tumor xenografts. Nature of the data set: In vivo antitumor effect (human tumor xenografts in nude mice). (In general: Xenograft models place foreign cells or tissue in a host animal.)
A short description of data set [6]: Stability in water, assay medium and storage solution. In kind it is physicochemical. The text has this: used and differing ultraviolet absorption maxima between the prodrug and the drug, the stability was easily assayed using UV detection. In all the ensuing studies, the only degradation products detected were the taxoids and the pyridinone that results from the hydrolysis of the onium salts. In water, these compounds show surprising stability for up to weeks depending upon the storage conditions. […] The fraction of ethyl acetated extractable material was between 18 and 23% for all onium salts and 95% for the present compounds.
FIG. 2 illustrates the results of GTP induced polymerization and calcium chloride induced depolymerization of tubulin in the presence of taxol and the 2'- and 7-MPA substituted derivatives.

Data set [7] relates to PC-3 prostate carcinoma tumor xenograft. Nature of the data set: PC-3 prostate tumor xenograft in nude mice.
The nature of data set [8]: Toxicity and survival in vivo (tumor bearing nude mice).

The term IC50 denotes the point on the concentration scale where inhibition reaches its midpoint.

With `CC(=O)O[C@H]1C(=O)[C@@]2(C)[C@H]([C@H](OC(=O)c3ccccc3)[C@]3(O)C[C@H](OC(=O)[C@H](Oc4cccc[n+]4C)[C@@H](NC(=O)c4ccccc4)c4ccccc4)C(C)=C1C3(C)C)[C@]1(OC(C)=O)CO[C@@H]1C[C@@H]2O` [Compound 2], the IC50 in data set [1] was 0.35 nM; in data set [2], 2.44 nM; in the data set on U-2511 CNS cancer cells, 860 nM; in data set [3], 1.94 nM; in data set [4] it was 3.78 nM; in [5], 127 nM. Moreover, in the data set on tubulin, the “tubulin binding in words” value is given as “no tubulin binding”. Also, the “reversal to tubulin (calcium induced depolymerization)” value in the data set with tubulin (CaCl2, 10^-6 M drug) is recorded as “about 70%”. The “in vivo antitumor efficacy in words” value in the data set on human tumor xenografts was “produced tumor regression with a high percentage of animals being free of measurable tumor masses at the end of the experiments”. In data set [6] (1-2% Tween #80 or Tween #20 with or without ethyl alcohol), the storage stability entry is “stable and may stored without significant loss”. Moreover, the “stability under the assembly-disassembly conditions” value in data set [6] (HPLC analysis) is “completely stable”. Further, in data set [7] (1.0 mM, 400 μL i.p., established tumors), the “antitumor activity, PC-3” value is “regression of established tumors”. Also, the “complete remission with no palpable tumor mass, PC-3” value in [7] (at termination, after 24 days) is on record as 5 out of 8 animals. Further, the Toxicity entry in [8] (Table II, in vivo) is listed as “low”. The “% survival” value in data set [8] (at end of experiments) was 100%. Also, in [8] (nude mice), the “in vivo tolerance / toxicity in words” value is “well tolerated, showing no visible toxic side effects and no significant weight loss”.

The values are drawn from patent publication US5731334A, “Method for treating cancer using taxoid onium salt prodrugs” (priority 1995, dated 1998).
